Assay results reported in patent US6875736B2, “Methods for identifying RNA binding compounds” (priority 1999, dated 2005).

tested on: TAR RNA; assay: On-bead screening of encoded tripeptide library with disperse red-labeled TAR RNA; assay type: binding, HIV-1; conditions: bead colour with 250 nM disperse red-labeled TAR RNA, 4° C.; red after 2 days, pink-red after 3 further days
Experimental: Screening the library with TAR RNA. Three copies of the tripeptide library on encoded beads, which contain more than 95% of the members of the library, were placed in an eppendoff tube and washed with water (500 μL×5) and TK buffer (50 mM Tris-HCl (pH 7.4), 20 mM KCl, 0.1% Triton X-100) (500 μL×4), which is commonly used for the formation of Tat-TAR complexes in vitro (Churcher et al. (1993) J. Mol. Biol. 230, 90-110). After filtration, the beads were suspended in TK buffer (400 μL) and bovine serum albumin (0.1 mg/mL) at room temperature for 1 hour to reduce nonspecific binding. The aqueous phase was removed, and the beads were washed with TK buffer (500 μL×3). After filtration, the beads were resuspended in […] TK buffer, 2.5 μM of bulge mutant TAR RNA was added, and the suspension was stirred at 4° C. for 1 day. The buffer was removed, the beads were resuspended in […] TK buffer, and 250 nM disperse red-dye-labeled-TAR RNA and 2.5 μM bulge mutant TAR RNA were added. After 2 days of stirring at 4° C., the buffer was removed, and the remaining beads were washed with water (500 μL×3). Two red beads were picked under a microscope and placed in separate capillary tubes. The remaining beads were further incubated with a mixture of disperse-red-dye-labeled TAR RNA and bulge mutant TAR RNA for 3 days, as described above. During the second screening, eight beads turned red. These beads were picked and placed in capillary tubes.
Decoding the structures of RNA-binding ligands. A disperse-red dye labeled encoded bead was placed in a 25 μL micro capillary tube containing dimethylformamide (DMF) (2 μL) and the bead was washed with DMF(5 μL×4). After draining the solvent, the bead was resuspended in 2 μL DMF and the micro capillary tube was centrifuged for 4 min and then flame sealed. Each capillary tube containing a bead was then irradiated with UV radiation at 350 nm for 4 hours and spun for 5 minutes in a centrifuge. The capillary tube was opened and the cleaved tag alcohols were silylated with N, O-bis(trimethylsilyl)acetamide in a micro syringe. The N, O-bis(trimethylsilyl)acetamide derivatives (1 μL) were analyzed using electron capture gas chromatography (“ECGC”). A Hewlett Packard 6890 series Gas Chromatography system, equipped with a micro electron capture detector (μ-ECD) and a HP Chemstation operating system, was used for all decoding analyses. The GC was operated in splitless inlet mode, using helium as the carrier gas. A 35 m×0.2 mm i.d.×0.33 μm film thickness HP-Ultra 1 column was used with a temperature program of 1 min isothermal at 200° C. followed by heating at 10° C./min to 320° C. The μ-ECD make up gas was nitrogen.
On-bead selection of structure-specific TAR RNA binding compounds. To identify tripeptides that bind to TAR RNA, the dye disperse red was covalently attached to TAR RNA, and the labeled RNA was incubated in a suspension of library beads made using the split synthesis method. […] Nevertheless, the dye-TAR RNA conjugate was able to enter the beads and bind in a structure-dependent manner to tripeptides attached thereto. The red color of the dye was clearly evenly distributed throughout the translucent bead. Broken beads were not selected. Peptides specific for portions of TAR RNA other than the bulge region were blocked using a relatively large concentration of an unlabeled bulge mutant TAR RNA. A small amount of detergent and low RNA concentrations (250 nM) also minimized non-specific binding.
Ligand Sequence Analysis. Upon incubating the dye-TAR RNA conjugate with the library, only two beads were stained red. These two beads were separated from the rest of the library, which was allowed to incubate with the dye-TAR RNA conjugate for 3 days at 4° C. […] At the end of the second incubation, only eight additional beads were stained pink-red.

Molecule	Color
H2N-(D)Thr-(D)Lys-(L)Asn-OH [ID #7]	Pink
H2N-(L)Arg-(D)Lys-(L)Val-OH [ID #5]	Pink
H2N-(L)Lys-(L)Lys-(L)Asn-OH [ID #3]	Pink

same assay, conditions: number of stained beads decoded with this sequence; three copies of library; bead peptides N-acetylated

Molecule	Frequency
H2N-(D)Thr-(D)Lys-(L)Asn-OH [ID #7]	1
H2N-(L)Arg-(D)Lys-(L)Val-OH [ID #5]	1
H2N-(L)Lys-(L)Lys-(L)Asn-OH [ID #3]	2

tested on: wild-type TAR RNA; assay: Solid-phase RNA-peptide binding assay (dissociation constant); set-up: species or system HIV-1; conditions: KD of a basic Tat peptide / KD of inhibitor
Source text: Solid-phase RNA-peptide binding assays. TAR RNA binding compounds found and decoded as described above (shown in Table 1) were synthesized on TENTAGEL S-NH2 (4.6 μmole). All fluorenylmethoxycarbonyl (Fmoc)-protected amino acids were purchased from Bachem (Torrance, Calif.). 1-hydroxybenzotriazole (HOBT) and diisopropylcarbodiimide (DIPCDI) were obtained from Aldrich Chemical Co., Milwaukee, Wis. Piperidine and trifluoroacetic acid were purchased from Applied Biosystems Division, Perkin-Elmer. All ligands were synthesized manually according to standard solid-phase peptide synthesis protocols. Coupling efficiencies of residues at each step were monitored using a standard Kaiser test. Deprotection of tripeptides was carried out in 10% water in trifluoroacetic acid (1 mL) for 16 hours at room temperature. After filtration of solvents, the resin was washed with water (1 mL×4), DMF (1 mL×4), and dichloromethane (1 mL×4), and dried under reduced pressure. Ten beads with attached tripeptides were placed in an Eppendorff tube and washed with TK buffer (200 μL×3). The beads were suspended in TK buffer (300 μL) and incubated with TAR RNA (1.95 μM) overnight at 4° C. The suspension was spun in a centrifuge, and the supernatant containing unbound RNA was transferred to a cuvette for optical density measurements at 260 nm using a Shimadzu UV-1601 spectrometer. Equilibrium concentrations of RNA were determined from these measurements. Given that the initial concentrations of ligand and RNA are known, and assuming simple bimolecular receptor/substrate binding, a dissociation constant (KD) was calculated from known equations in order to determine which test compounds bind TAR RNA most tightly.
To verify that this assay reflected RNA-tripeptide interactions and to determine the affinity of these tripeptides for TAR RNA, the eight tripeptides were resynthesized and their dissociation constants with wild-type TAR RNA were measured. […] To compare the RNA binding affinities of 8 ligands to natural Tat peptide, a Tat-derived peptide (Gly48 to Arg57) containing the RNA-binding region of Tat protein was synthesized (FIG. 2(b)) (SEQ. ID. NO. 2). The dissociation constant of the Tat peptide-RNA complex was determined under the same conditions used for the tripeptide-RNA complexes. […] A relative dissociation constant (KREL) can be calculated as the ratios of the Tat peptide to tripeptide dissociation constants (KD) for TAR RNA. Tripeptide ID #1 binds TAR RNA with affinities higher than the wild-type Tat peptide.

Molecule	KREL
H2N-(D)Thr-(D)Lys-(L)Asn-OH [ID #7]	1.29
H2N-(L)Arg-(D)Lys-(L)Val-OH [ID #5]	0.07
H2N-(L)Lys-(L)Lys-(L)Asn-OH [ID #3]	0.23

same assay, conditions: diastereomers of tripeptide ID#1

Molecule	dissociation constant relative to tripeptide ID#1 (times higher)
H2N-(L)Lys-(L)Lys-(L)Asn-OH [ID #3]	approximately 7 times

same assay, conditions: wild-type TAR RNA, TK buffer, overnight at 4° C.; four independent experiments

Molecule	Kd [µM]
GRKKRRQRRR [Tat peptide, reference compound]	0.698
H2N-(D)Thr-(D)Lys-(L)Asn-OH [ID #7]	0.564 ± 0.08
H2N-(L)Arg-(D)Lys-(L)Val-OH [ID #5]	10.4
H2N-(L)Lys-(L)Lys-(L)Asn-OH [ID #3]	3.22

tested on: Tat trans-activation (HIV-1 LTR promoter, CAT reporter gene); assay: Inhibition of Tat trans-activation in HL3T1 cells (CAT reporter); assay type: cell-based; conditions: control ligands
Experimental: Inhibition of Tat trans-activation in cellular assays. […] Cells were grown in 2 mL of Dulbecco's modified Eagle medium (DMEM) supplemented with 10% fetal calf serum in 60 mm dishes at 37° C. in 5% CO2 in a tissue culture incubator. Cells were refreshed by 2 mL DMEM before transfection. Transfection was started by dropwise addition of 250 μL 2×Hepes-buffered saline and maintenance at room temperature for 10 minutes. Approximately 10 μg of plasmids (pSV2Tat and pAL) and increasing amounts of tripeptide 1 were transfected in the presence of CaCl2 (final concentration 125 mM) and the cells were incubated for 4 hours at 37° C. in a tissue culture incubator. The medium was then discarded and the cells were subjected to glycerol shock (1.5 mL of 15%) for 45 seconds. Finally, the cells were washed twice with 5 mL phosphate-buffered saline (PBS) and were grown in 3 mL DMEM. DMEM was changed at 24 hours post-transfection, and cells were harvested 48 hours post-transfection. Cells were lysed in reporter lysis buffer (Promega). Aliquots were used for CAT and luciferase assays. Both activities were normalized to protein concentration determined by using a modified Bradford assay (Bio-Rad).
Inhibition of Tat trans-activation in vivo. […] Luciferase reporter gene provides an internal control.

Molecule	inhibitory effect on Tat transactivation
N=C(N)NCCC[C@H](N)C(N)=O [L-argininamide, reference compound]	no inhibitory effect
